In patent US20080200531A1, “CDKI pathway inhibitors as inhibitors of tumor cell growth” (priority 2006, published 2008):

Tests used:
[1] = target: CDK2/cyclinA (h), CDK2/cyclinE (h); test: Cyclin/CDK kinase assay (Upstate), CDK2/cyclinA and CDK2/cyclinE; type: biochemical, human; settings: 100 μM, re-tested at 20 and 40 μM (SNX9, SNX2) or 10 and 20 μM (SNX9-1, SNX14)
Method: (§1) To test the above hypothesis, we determined whether several CDKI pathway inhibitors, including two SNX9 class compounds (SNX9 and SNX9-1), two compounds of a different structural class (SNX14 and SNX2) and another unrelated inhibitor (SNX35), inhibit the kinase activity of different complexes formed in vitro by purified cyclin/CDK complexes. This analysis was carried out as a service by Upstate Biotechnology, Inc.
In a final reaction volume of 25 μl, CDK2/cyclinA (h) (5-10 mU) is incubated with 8 mM MOPS pH 7.0, 0.2 mM EDTA, 0.1 mg/ml histone H1, 10 mM MgAcetate and [γ-33P-ATP] (specific activity approx. 500 cpm/pmol, 45 μM concentration). The reaction is initiated by the addition of the MgATP mix. After incubation for 40 minutes at room temperature, the reaction is stopped by the addition of 5 μl of a 3% phosphoric acid solution. 10 μl of the reaction is then spotted onto a P30 filtermat and washed three times for 5 minutes in 75 mM phosphoric acid and once in methanol prior to drying and scintillation counting.
In a final reaction volume of 25 μl, CDK2/cyclinE (h) (5-10 mU) is incubated with 8 mM MOPS pH 7.0, 0.2 mM EDTA, 0.1 mg/ml histone H1, 10 mM MgAcetate and [γ-33P-ATP] (specific activity approx. 500 cpm/pmol, 120 μM concentration). The reaction is initiated by the addition of the MgATP mix. […]

[2] = system: WI-38 and BJ-EN fibroblasts vs HT1080, HCT116, C33-A, Calu-6; test: 3-day growth inhibition assay (Hoechst 33342), normal fibroblasts vs tumor cell lines; settings: 3-day assay, WI-38, BJ-EN vs HT1080, HCT116, C33-A
Method: The assays were carried out in 96-well plates, in triplicates; the plated cell numbers for each cell line were determined in preliminary experiments to assure exponential growth over the 3-day period of the assay. The cell numbers were measured by staining DNA of attached cells with Hoechst 33342, and the results for each dose were expressed as the decrease in cell number relative to untreated cells. For some of the tumor/normal cell line combinations, the assays were repeated using CellTiter-Glo viability assay (Promega), with the same results.

[3] = system: p21-induced CMV-GFP expression (CDKI pathway); test: CMV-GFP reporter assay for p21-induced transcription (HTS) in HT1080 p21-9 derived reporter cell line; type: cell-based, human; settings: for anti-CDKI pathway activity in the reporter assay (induction of CMV-GFP expression in response to p21): libraries screened at 20 μM
Description: As described in a co-pending patent application PCT/US06/0 1046, we have developed a high-throughput screening (HTS) procedure for compounds inhibiting the CDKI pathway. This procedure utilizes a highly sensitive reporter cell line that was generated by infecting HT1080 p21-9 cells, a derivative of HT1080 fibrosarcoma cells that express p21 from a promoter induced by a physiologically neutral β-galactoside IPTG (isopropyl-β-thio-galactoside) with a lentiviral vector that expresses Green Fluorescent Protein (GFP) from the CDKI-inducible cytomegalovirus (CMV) promoter, followed by subcloning of GFP positive cells and monitoring the induction of GFP expression by IPTG. A cell line showing approximately 10-fold increase in GFP upon the addition of IPTG was used for HTS in a 96-well format.
This reporter line was used to screen two diversified small-molecule libraries developed by ChemBridge Corp., Microformat 04 and DiverSet, each comprising 50,000 compounds. These diversified libraries were rationally chosen by ChemBridge by quantifying pharmacophores in a collection of >500,000 drug-like molecules, using a version of Chem-X software to maximize the pharmacophore diversity. The Microformat 04 collection was designed to complement the chemical space covered by the older DiverSet library. ChemBridge libraries have been successfully used by numerous industrial and academic researchers, in a variety of cell-based and cell-free assays. The ChemBridge libraries were screened at 20 μM concentration, a conventional concentration for cell-based screening of these libraries. 62 of 100,000 ChemBridge compounds were identified by HTS and verified as inhibiting the induction of CMV-GFP expression in response to p21. This low hit rate (0.06%) indicates a high selectivity of our assay.
In this experiment, HT1080 p21-9 cells that express firefly luciferase from a CDKI-responsive promoter of cellular NK4 gene were cultured with IPTG for two days, which is sufficient for near-maximal induction of NK4 (Poole et al., supra).

[4] = system: human colon (HCT116) cancer xenografts; test: Therapeutic Dose Study in nude mice bearing HCT116 xenografts; type: in vivo; settings: 70 mg/kg intra-tumorally; for decrease in the tumor size on day 31 relative to the control / mice that died or were sacrificed by day 31: 9 injections over three weeks; for mice that died or were sacrificed by day 31: groups of 10, control 60%; for P, decrease in the tumor size on day 31 relative to the control: 9 injections, paired two-tailed t-test, dead or sacrificed mice taken as 2000 mm^3
Method: Male NCr nude mice, aged approximately 6-8 weeks were used for the study, which was carried out as a service by Taconic Biotechnology, Rensselaer, N.Y. Animals were maintained under virus free barrier conditions with continuous health monitoring. The administration of test materials, all data collection and disposal of study animals was in compliance with all relevant Taconic Biotechnology Standard Operating Procedures as well as The Guide for the Care and Use of Laboratory Animals. Study animals were observed upon arrival and daily throughout the study for overall health, behavior and morbidity. Test animals were subject to body weight measurement to determine dosage volumes of test articles.
With this information, we then carried out the Therapeutic Dose Study of SNX9 and SNX9-1, in nude mice bearing established human colon (HCT116) cancer xenografts. HCT116 was from American Type Culture Collection (ATCC); ATCC information was referenced for the cryopreservation and growing of the cells. The cells were injected at 5×10^6 subcutaneously in the intra-scapular region. The tumor dimensions were measured using vernier calipers. To approximate the subcutaneous tumor size, the calipers were compressed on the skin slightly but not so tightly as to grip the subcutaneous mass. The maximal dimension of the tumor was recorded as L. The dimension perpendicular to L was recorded as W. The formula: Volume=0.5*L*W^2 was used. Eight days following tumor cell injection into the intra-scapular region, when all the tumor inoculi became palpable, groups of 10 mice were treated for 21 days with PBS (control), SNX9 or SNX9-1 (each at 70 mg/kg), dissolved as in the Range Finder Study.
The compounds were injected intra-tumorally three times a week, on alternating days, for a total of 9 injections per animal over three weeks. Mice were sacrificed when tumor size exceeded 2000 mm^3. […] By day 31 (2 days after the end of treatment), 6 of 10 mice in the control group (60%) died or were sacrificed, as compared to 40% of the mice in SNX9-treated group and only 10% of the mice in SNX9-1 treated group. Statistical analysis of differences in the tumor size on day 31 was carried out using paired two-tailed t-test; for this analysis, the tumor volume of all the mice that died or were sacrificed before day 31 was assumed to be 2000 mm^3.

[5] = system: cyclin/CDK complexes (CDK1, CDK2, CDK3, CDK6); test: Cyclin/CDK kinase assays, comparison over all complexes; type: biochemical, human
Method: as §1
At the first step, all the compounds were tested at 100 μM concentration. […] For SNX14 and SNX2, the relative efficacy of inhibition was CDK1>CDK2˜CDK3>CDK6. For SNX9 and SNX9-1, the order was CDK3>CDK1>CDK2>CDK6 (FIG. 12).

Compound | kinase activity of CDK2 [1] | tumor selectivity of growth inhibition, tumor cells vs normal fibroblasts [2] | anti-CDKI pathway activity in the reporter assay (induction of CMV-GFP expression in response to p21) [3] | decrease in the tumor size on day 31 relative to the control [4] | mice that died or were sacrificed by day 31 [4] | P, decrease in the tumor size on day 31 relative to the control [4] | relative efficacy of inhibition (order of CDKs) [5] | normalized GFP expression without p21 induction ([3]; in the absence of IPTG) | normalized GFP expression with p21 induction ([3]; in the presence of IPTG, three days of p21 induction)
NCCc1c[nH]c2c(Cl)cc(Cl)cc12 [SNX9-1] | inhibited the kinase activities | inhibited all the tumor cells to a greater extent than normal fibroblasts | showed anti-CDKI pathway activity in the reporter assay | highly significant | 10% | < 0.01 | CDK3>CDK1>CDK2>CDK6 |  | 
Cc1[nH]c2c(Cl)cccc2c1CCN [SNX9] | inhibited the kinase activities | inhibited all the tumor cells to a greater extent than normal fibroblasts | showed anti-CDKI pathway activity in the reporter assay | did not reach statistical significance | 40% | < 0.3 | CDK3>CDK1>CDK2>CDK6 | does not inhibit promoter function when p21 is not induced | pronounced inhibition of transcription by p21
